{"source": "patent US9433616B2", "about": "“Methods and compositions for decreasing saliva production” (priority 2005, dated 2016)", "key": {"[1]": {"system": "salivation in patients with Parkinson's disease", "conditions": "in vivo; cited from earlier work"}, "[2]": {"system": "muscarinic receptors in the muscles of the eye", "conditions": "cited from earlier work"}, "[3]": {"system": "excessive sialorrhea in children with developmental disabilities", "conditions": "cited from earlier work"}, "[4]": {"system": "clozapine-induced sialorrhea", "conditions": "in vivo; cited from earlier work"}, "[5]": {"system": "dryness of the mouth in human subjects", "conditions": "in vivo", "description": "This was an evaluation of the placebo and drug-containing disks conducted in a closed room while sitting and carrying on an otherwise normal conversation.\nNo food or drink intake for approximately 2 hours before test. One disk was inserted in the mouth between gum and cheek on the lower right quadrant of mouth.\nAll sat in a comfortable room and had not eaten for at least one hour before."}, "[6]": {"system": "Parkinson's Disease (PD) patients complaining of sialorrhea", "conditions": "human, in vivo, po", "description": "The aim was to assess personal impression by the patients of their sialorrhea symptoms, including, drooling, speech performance, and social interference, as well as the presence of side effects, such as blurred vision, confusion, somnolence, tachycardia, hypotension, or any other discomforting sensation. The patients were evaluated for 2 hours in an outpatient clinic while resting in comfortable armchairs. They rated themselves on a visual analog scale by marking a line representing the amount of disability incurred by their sialorrhea both before and after the treatment by responding to the question: “How would you grade the effect of the drops that you were administered on your sialorrhea?”\nThe patients were fluctuating PD patients evaluated in the ON state in the morning, having eaten no food for one hour before the test. […] The patients were instructed to perform some chewing like movements in order to distribute the drug homogeneously. The patients were instructed to fill the visual-analogical scale 1 hour after drug intake. In addition, they were asked about the latency of the effect, if any, and if the effect persisted before leaving."}, "[7]": {"system": "salivary drying in healthy volunteers", "conditions": "in vivo", "procedure": "The time of first noticeable dryness in the mouth and the time to complete disintegration of the film were noted. Comments about adverse events, taste, and tolerance were also recorded by the participants.\nThe secondary aims of this study were to determine: time of first noticeable dryness in the mouth, time to complete disintegration of the film, and the acceptability and tolerance of the bioadhesive buccal films by the subject.\nA blinded randomized crossover study in healthy volunteers.\nIn each treatment, the product was blind labeled.\nA thin film was removed from an individually wrapped pouch and placed in the inner cheek opposite the molars nearest to the submandibular gland. It was positioned with the fingers and the mucoadhesive property facilitated its adhesion.\nDissolve period: the dissolve period of the film was noted. It was defined as the time after which the film was no longer felt in the oral cavity.\nThe volunteer recorded the tolerance to the buccal mucosa and overall feel during testing."}, "[8]": {"system": "sialorrhea in PD patients", "conditions": "human, in vivo"}, "[9]": {"system": "Parkinson's Disease (PD) patients suffering from sialorrhea", "conditions": "human, in vivo", "excerpt": "They were instructed to apply the drops to their tongues on an as needed basis."}}}
{"smiles": "CN1[C@@H]2CC[C@H]1C[C@@H](OC(=O)C(CO)c1ccccc1)C2", "note": "(stereo partly shown) [atropine]", "values": [{"measurement": "effect after 30 minutes", "setting": "[1]", "value": "No effect was noted"}, {"measurement": "time results first observed after initial treatment", "setting": "[1]", "value": "three"}, {"measurement": "time of peak mydriasis effect", "setting": "[2]; in vivo", "value": "30 to 40", "unit": "min"}]}
{"smiles": "CN(C)CCOC(=O)C(c1ccccc1)C1(O)CCCC1", "note": "(stereo not shown) [cyclopentolate]", "values": [{"measurement": "duration of effect", "setting": "[2]; eye drops, some effects may persist for up to several days", "value": 8, "unit": "h"}]}
{"smiles": "C[N+]1(C)CCC(OC(=O)C(O)(c2ccccc2)C2CCCC2)C1", "note": "(stereo not drawn) [glycopyrrolate, 3-(α-cyclopentylmandeloy(osy)-1,1-dimethylpyrrolidinium bromide]", "values": [{"measurement": "control of excessive sialorrhea", "setting": "[3]", "value": "effective"}, {"measurement": "treated individuals with substantial adverse systemic side effects requiring discontinuation", "setting": "[3]; systemic administration", "value": "approximately 20%"}]}
{"smiles": "CC(C)[N+]1(C)[C@@H]2CC[C@H]1C[C@@H](OC(=O)C(CO)c1ccccc1)C2", "note": "(stereo partly shown) [ipratropium]", "values": [{"measurement": "clinical response", "setting": "[4]", "value": "partial yet clinically meaningful response"}, {"measurement": "time until effect of the spray wore off", "setting": "[4]", "value": "2 to 8", "unit": "h"}]}
{"smiles": "CCN(Cc1ccncc1)C(=O)C(CO)c1ccccc1", "note": "(stereo not shown) [tropicamide, N-ethyl-N-(4-pyridylmethyl) tropamide]", "values": [{"measurement": "time local numbness first noticed", "setting": "[5]; human", "value": 20, "unit": "min"}, {"measurement": "change in pupil size", "setting": "[5]", "value": "no obvious change in pupil size"}, {"measurement": "effect on heart rate (tachycardia), confusion, somnolence", "setting": "[6]", "value": "did not affect heart rate (cause tachycardia), confusion, or somnolence"}, {"measurement": "photosensitivity complaints", "setting": "[6]", "value": "No complaint of photosensitivity"}, {"measurement": "side effects or complications", "setting": "[6]", "value": "None of the patients developed side effects or complications"}, {"measurement": "tolerance", "setting": "[7]", "value": "acceptable"}, {"measurement": "side effects", "setting": "[8]", "value": "No side effects were observed"}, {"measurement": "taste tolerance", "setting": "[9]", "value": "complained of the taste of the medication"}]}
